In patent publication EP4810040A2, “INHIBITORS OF APOL1 AND METHODS OF USING SAME” (priority 2020, dated 2022):
pIC50: −log10 of the molar value.

Legend:
[1] = biological target: T1, APOL1 G1 (Homo sapiens, UniProt O14791, I384M/S342G); test: MultiTox-Fluor Multiplex Cytotoxicity Assay, tet-inducible APOL1 G1 T-REx-HEK293 cells; type: cell-based; set-up: expressed in transfected cells; host or cells: T-REx HEK293, clone G1 DC3.25 (pAAVS1-Puro-APOL1 G1); settings: Multi-Tox Assay; for pIC50: IP50 = IC50 for cell proliferation, APOL1 variant not given; for IC90: APOL1 variant (G0/G1/G2) of the HEK293 cells not given, read-out: Multi-Tox Assay IC90
T1 sequence (O14791 28-398 S342G/I384M): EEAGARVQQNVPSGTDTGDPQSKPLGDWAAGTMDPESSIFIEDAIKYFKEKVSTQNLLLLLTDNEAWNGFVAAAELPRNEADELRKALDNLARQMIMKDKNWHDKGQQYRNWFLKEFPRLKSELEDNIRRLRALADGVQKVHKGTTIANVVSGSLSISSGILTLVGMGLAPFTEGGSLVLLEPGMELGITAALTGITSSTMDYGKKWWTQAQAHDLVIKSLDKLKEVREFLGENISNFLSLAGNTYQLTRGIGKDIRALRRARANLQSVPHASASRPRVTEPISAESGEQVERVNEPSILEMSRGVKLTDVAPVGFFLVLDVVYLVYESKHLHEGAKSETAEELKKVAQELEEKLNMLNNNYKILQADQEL
Method in brief: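 T-REx-HEK293 cells carrying tet-inducible APOL1 G1 induced with 50 ng/mL tet alongside compound (top 10 µM, 10-point 3-fold, duplicate) for 24 h at 37 °C. MultiTox-Fluor dead/live protease fluorescence ratio read after 30 min; normalized to no-tet (100% viability) and tet-treated (0%) controls, then curve-fitted.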

[2] = biological target: T1, APOL1 G1; test: Trypanosoma brucei brucei Lysis Assay Using APOL1 Recombinant Protein (AlamarBlue viability readout); type: cell-based; settings: IP50 = IC50 for cell proliferation; Trypanosome Assay
Text: Trypanosoma brucei brucei is a blood stream parasite to which human, gorillas, and baboons are immune due to the presence of the APOL1 protein in their HDL particles. The protein is uptaken by the parasite via the TbHpHb receptor located in its flagellar pocket and is bonded by the Hpr protein contained in the HDL particles which triggers the receptor endocytosis by the parasite.
Following endocytosis, the formed vesicle containing the HDL particle matures from early to late endosome, and subsequently to lysosome. The concomitant pH change in the lumen of the vesicle triggers the insertion of the APOL1 protein into the membrane of the late endosome/lysosome and hereby triggers lysosomal membrane permeabilization and as a further downstream event, trypanosome lysis. Trypanosoma brucei brucei is sensitive to lysis by all three APOL1 variants (G0, G1, and G2).
The Trypanosoma brucei brucei lysis assay is a lysis assay of the parasite using recombinant APOL1 protein variant followed by a fluorescent detection method of viability by the addition of AlamarBlue reagent to the assay well, a general metabolic redox indicator (AlamarBlue assay).
Briefly, the AlamarBlue active compound, resazurin, a blue, water soluble, non-toxic and cell permeable molecule, which can be followed by absorbance, is reduced by various metabolic pathways into resorufin, a red compound which can be followed by either absorbance or fluorescence. The assay allows the calculation of the percent viability (percent of living Trypanosomes remaining in each well) at the end of a lysis relative to the untreated condition by interpolation of fluorescent values (FLU) on a standard curve with a known amount of seeded trypanosome/well.
Trypanosoma brucei brucei (ATCC, Cat. No. PRA-382) • o Lister 427 VSG 221 bloodstream form.
Assay Ready Plates (ARPs) ∘ ARPs comes in two formats: • […] final top concentration with a 2.5 fold dilution down. • 5 mM final top concentration with a 3 fold dilution down. • ▪ Both have a 10 point Dose response. • ▪ 0.1% DMSO final in the Black Assay Plate. • ▪ Compounds are diluted 1000 fold in the Black Assay Plate. • ▪ Each plate is designed for 14 compounds in duplicate. ∘ In the final Black Assay Plate: […]

Substance | pIC50 [1] | IC90 [1] [nM] | pIC50 [2]
2'-ethyl-6'-(1-methyltriazol-4-yl)-2-(trifluoromethyl)spiro[4,5-dihydrothieno[2,3-c]pyran-7,4'-piperidine] [Compound 187] | > 7.30 | < 50 | 6.30 to 7.30
2-chloro-2'-ethyl-6'-(1-methyltriazol-4-yl)spiro[4,5-dihydrothieno[2,3-c]pyran-7,4'-piperidine] [Compound 186] | > 7.30 | 50 to 500 | 6.30 to 7.30
(2S)-2-chloro-2'-methyl-6'-(1-methylpyrazol-4-yl)spiro[4,5-dihydrothieno[2,3-c]pyran-7,4'-piperidine]-4-ol [Compound 175] | > 7.30 | < 50 | > 7.30
(2S,6S)-2-chloro-2'-cyclopropyl-6'-methyl-spiro[4,5-dihydrothieno[2,3-c]pyran-7,4'-piperidine] [Compound 211] | > 7.30 | 50 to 500 | 6.30 to 7.30
